Laboratory results as given in patent publication US20050181072A1, “Use of essential oils for combating gi tract infection by helicobacter-like organisms” (priority 2000, published 2005).
Converted amounts (≈) assume the structure as drawn.

test system: H. pylori; assay: Liquid medium assay, MBC determination (CFU count after subculture); type: cell-based; conditions: Helicobacter pylori, pH 7.4, read-out: Liquid medium MBC
Protocol: The parameters used to define the inhibitory capacity of a given substance are: 1) the minimal inhibitory concentration (MIC) which is the lowest concentration at which bacterial growth is prevented, and 2) the minimal […] concentration (MBC) which is the lowest concentration at which bacteria are killed (no growth in subculture). In the light of this: MIC≦MBC. ?
b) Liquid medium assay (used for MBC determination)
MBC determination in H. pylori was carried out by placing bacteria and different dilutions of EO at pH 7.4 together for 1 h or 24 h, plating (subculture in solid medium) for 3-5 days, and counting colony forming units (CFU). The results were then plotted as H. pylori (log10CFU/ml) vs concentration of EO (g/l). It is clear from the plots (shown in FIGS. 1 and 2) that EOs already display a marked effect on H. pylori viability after 1 h incubation and that the selected EOs are remarkably potent inhibitors of H. pylori in vitro.

Row | Compound | MBC [µg/mL]
1 | C=CCc1ccc(OC)cc1 [Estragole] | 100 (≈ 675 µM)
2 | Cc1ccc(C(C)C)cc1O [Carvacrol] | 40 (≈ 266 µM)

same assay, conditions: Helicobacter pylori; pure compounds, Table 2; pH 7.4; read-out: Liquid medium MBC

Row | Compound | MBC [µg/mL]
3 | CC(C)=CCCC(C)=CC=O [Citral] | 40 (≈ 263 µM)
4 | C=CCc1ccc(O)c(OC)c1 [Eugenol] | 100 (≈ 609 µM)
5 | CC1=CCC2CC1C2(C)C (stereo not drawn) [Alpha-pinene] | 100 (≈ 734 µM)
6 | CC12CCC(CC1)C(C)(C)O2 [Eukalyptol] | > 100
7 | CC(C)=CCCC(C)CC=O (centres unmarked) [Citronellal] | 100 (≈ 648 µM)
8 | CCC/C=C/C=O [Trans-2-hexenal] | 40 (≈ 408 µM)
9 | CC(C)=CCCC(C)=CCCC(C)=CCO [Farnesol] | 40 (≈ 180 µM)
10 | CC(C)=CCC/C(C)=C\CO [Nerol] | 40 (≈ 259 µM)
11 | CC(=O)OC/C=C(\C)CCC=C(C)C [Geranyl acetate] | > 100
12 | CC=Cc1ccc(O)c(OC)c1 [Isoeugenol] | 40 (≈ 244 µM)
13 | CC1CCC(C(C)C)C(O)C1 (centres unmarked) [Menthol] | > 100
14 | Cc1ccc(C(C)C)c(O)c1 [Thymol] | 100 (≈ 666 µM)
15 | CC(C)=CCC/C(C)=C/CO [Geraniol] | 100 (≈ 648 µM)
16 | C=CC(C)(O)CCC=C(C)C (centres unmarked) [Linalool] | 100 (≈ 648 µM)
17 | C=C1CCC2CC1C2(C)C (stereo not drawn) [Beta-pinene] | 100 (≈ 734 µM)
